# Paper PMC11243693, “Synthesis and Biological Evaluation of New Compounds with Nitroimidazole Moiety” (Molecules, 2024)
# How the values were obtained:
# A-549 cells = test: MTT assay, A-549 cells; format: cell-based, human; conditions: A-549 human lung carcinoma, MTT, 24 h, mean SD
# Description: (§1) Colon cancer (SW480), breast adenocarcinoma (MDA-MB-231), lung carcinoma (A-549), prostate cancer (PC3), and immortal keratinocyte (HaCaT) cell lines of human origin were acquired from the American Type Culture Collection (ATCC). The recommended culture media and protocols provided by ATCC were as follows: SW480 were cultured in Minimum Essential Medium (MEM), MDA-MB-231, A-549, and HaCaT cells were cultured in Dulbecco’s Modified Eagle Medium (DMEM), while PC3 was cultured in Roswell Park Memorial Institute Medium (RPMI). The culture media were supplemented with 10% fetal bovine serum (FBS), penicillin (100 U/mL), and streptomycin (100 μg/mL). Cells were maintained in a humidified incubator at 37 °C with 5% CO2. Passaging was carried out upon reaching 80–90% confluence using 0.25% trypsin (Gibco Life Technologies, New York, NY, USA) treatment prior to experimentation.
# (§2) Cell viability was assessed utilizing the MTT assay, which relies on the conversion of 3-(4,5-dimethylthiazol-2-yl)-2,5-diphenyltetrazolium bromide salt (MTT) to formazan crystals by mitochondrial dehydrogenases in viable cells. Initially, cells were plated in 96-well plates at a density of 1 × 10^4 cells per well and allowed to attach for 24 h at 37 °C in a CO2 incubator. Subsequently, the culture medium was replaced with fresh medium containing various concentrations of the test compounds (ranging from 1 to 100 μM), and cells were further cultured for 24 h at 37 °C in a CO2 incubator. Control wells were left untreated for comparison. After the incubation period, MTT solution (0.5 mg/mL in serum-free medium) was added to each well, followed by a 4-h incubation at 37 °C in a CO2 incubator. The medium was then aspirated, and the formazan crystals were dissolved by adding a mixture of isopropanol and DMSO (1:1). The absorbance of the resulting solution was measured at 570 nm using a UVM 340 reader (ASYS Hitech GmbH, Seekirchen am Wallersee, Austria). IC50 values were determined using GraphPad software (GraphPad Prism 8 Software).
# SW620 cells = test: MTT assay, SW620 cells; format: cell-based, human; conditions: SW620 human metastatic colon cancer, MTT, 24 h, mean SD
# MDA-MB-231 cells = test: MTT assay, MDA-MB-231 cells; format: cell-based, human; conditions: MDA-MB-231 human breast adenocarcinoma, MTT, 24 h, mean SD
# Description: as §1, §2
# HaCaT cells = test: MTT assay, HaCaT normal cells; format: cell-based; conditions: HaCaT human immortal keratinocyte (normal cells), 24 h, mean SD
# Description: as §1, §2
# Candida auris CDC B11903 = test: Broth microdilution, C. auris CDC B11903; format: cell-based
# Method in brief: (§3)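 MIC: A570 after 18 ± 2 h, 35 ± 2 °C. Medium: MH broth (bacterium) or MH + 2% glucose (yeasts). Serial 2-fold dilutions of compound, top solution 1000 µg/mL. Inoculum: 0.5 McFarland suspension diluted 10×. MBC/MFC: subculture onto MHA or MHA + 2% glc, 99.9% growth inhibition.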
# [1] = tested on: Candida lusitaniae ATCC 3449; test: Broth microdilution, C. lusitaniae ATCC 3449; format: cell-based
# Method in brief: as §3
# [2] = tested on: Candida krusei ATCC 14243; test: Broth microdilution, C. krusei ATCC 14243; format: cell-based
# Method in brief: as §3
# [3] = tested on: Staphylococcus aureus ATCC 25923; test: Broth microdilution, S. aureus ATCC 25923; format: cell-based
# Method in brief: (§4)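 EUCAST broth microdilution: inoculum 0.5 McFarland, 10-fold diluted; Mueller-Hinton broth (bacteria) or MH + 2% glucose (yeast); twofold dilutions from 1000 µg/mL; 18 ± 2 h at 35 ± 2 °C, A570 read for MIC. MBC/MFC from subculture on MHA or MHA + 2% glc (99.9% kill).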
# [4] = tested on: Staphylococcus epidermidis ATCC 12228; test: Broth microdilution, S. epidermidis ATCC 12228; format: cell-based
# Method in brief: as §4
# [5] = tested on: Bacillus cereus ATCC 10876; test: Broth microdilution, B. cereus ATCC 10876; format: cell-based
# Method in brief: as §3
# [6] = tested on: Candida tropicalis ATCC 1369; test: Broth microdilution, C. tropicalis ATCC 1369; format: cell-based
# Method in brief: as §3
# [7] = tested on: Staphylococcus aureus ATCC 6538; test: Broth microdilution, S. aureus ATCC 6538; format: cell-based
# Method in brief: as §4
# [8] = tested on: Candida parapsilosis ATCC 22019; test: Broth microdilution, C. parapsilosis ATCC 22019; format: cell-based
# Method in brief: as §3
# [9] = tested on: Staphylococcus aureus ATCC 43300 methicillin-resistant MRSA; test: Broth microdilution, S. aureus ATCC 43300 MRSA; format: cell-based
# Method in brief: as §4
# Candida spp. = test: Broth microdilution, Candida spp.; format: cell-based; conditions: range over both strains and the listed compounds
# Description: The antibacterial activity of the obtained thiosemicarbazides and hydrazide–hydrazones was determined by evaluating their ability to inhibit microbial growth in vitro using the broth microdilution method, according to the guidelines of the European Committee on Antimicrobial Susceptibility Testing (EUCAST). The method involved the preparation of microbial suspensions with a standardized density of 0.5 on the McFarland scale (equivalent to 1.5 × 10^8 colony-forming units/mL for bacteria and […] for fungi). A solution of the test substances was then prepared (initial concentration 1000 µg/mL, diluted in sterile Mueller-Hinton broth for bacteria or Mueller-Hinton with 2% glucose for fungi). The test was carried out in 96-well polystyrene flat-bottom plates (Medlab, Poland) with 100 µL of appropriate sterile microbiological medium in each well. The first wells were filled with 200 µL of the test substance, diluted to the initial concentration, and then double-decreasing dilutions were made under aseptic conditions using an automatic pipette. The final step was the addition of a 10-fold diluted microbial suspension of 2 µL. At the same time, the following controls were included: (a) medium control (100 µL of sterile medium without microorganisms added), (b) microbial viability control, (c) test substance control (dilutions without added micro-organisms), (d) positive control of the drug used in the clinic. The plates thus prepared were incubated for 18 ± 2 h at 35 ± 2 °C under conditions optimal for the growth of the test microorganisms. After incubation, the spectrophotometric absorbance at 570 nm in each well of the plate was read. The aim of this part of the study was to determine two parameters: the minimum inhibitory concentration (MIC) and the minimum bactericidal or fungicidal concentration (MBC/MFC) of the test compound. […] The MBC value was determined by adding 5 µL of the contents of each well of the plate to solid sterile MHA or MHA + 2%glc medium for bacteria and fungi, respectively. The area on the plate where 99.9% inhibition of microbial growth was observed indicated the lethal concentration. In addition, the quotient MBC(MFC)/MIC could be determined to assess the nature of the activity of the test substance. If MBC(MFC)/MIC was <4, the test substance was bactericidal/fungicidal, whereas if MBC(MFC)/MIC was ≥4, it was bacteriostatic/fungistatic. Amoxicillin (Glentham Life Sciences, USA) and nystatin (Glentham Life Sciences, USA) were used as the controls for this assay.
# The test was performed either on bacteria, comprising: Gram-positive (Staphylococcus aureus ATCC 25923, Staphylococcus aureus ATCC 6538, Staphylococcus aureus ATCC 43300 methicillin-resistant MRSA, Staphylococcus epidermidis ATCC 12228, Micrococcus luteus ATCC 10240, Bacillus subtilis ATCC 6633, Bacillus cereus ATCC 10876) and Gram-negative (Escherichia coli ATCC 25922, Pseudomonas aeruginosa ATCC 27853, Proteus mirabilis ATCC 12453, Klebsiella pneumoniae ATCC 13883) or yeast (Candida parapsilosis ATCC 22019, Candida glabrata ATCC 90030, Candida krusei ATCC 14243, Candida glabrata ATCC 15126, Candida tropicalis ATCC 1369, Candida auris CDC B11903, Candida lusitaniae ATCC 3449) reference strains from the American Type Culture Collection (ATCC) or the Centers for Disease Control and Prevention (CDC).
# [10] = tested on: Micrococcus luteus ATCC 10240; test: Broth microdilution, M. luteus ATCC 10240; format: cell-based
# Method in brief: as §4
# [11] = tested on: Candida glabrata ATCC 90030; test: Broth microdilution, C. glabrata ATCC 90030; format: cell-based
# Method in brief: as §3
# [12] = tested on: Candida glabrata ATCC 15126; test: Broth microdilution, C. glabrata ATCC 15126; format: cell-based
# Method in brief: as §3
# [13] = tested on: Bacillus subtilis ATCC 6633; test: Broth microdilution, B. subtilis ATCC 6633; format: cell-based; conditions: for MBC/MIC Ratio: <4 bactericidal, ≥4 bacteriostatic
# Method in brief: as §4
# Gram-positive bacteria = test: Broth microdilution, Gram-positive bacteria; format: cell-based; conditions: strains as named in the sentence
# Description: The antibacterial activity of the obtained thiosemicarbazides and hydrazide–hydrazones was determined by evaluating their ability to inhibit microbial growth in vitro using the broth microdilution method, according to the guidelines of the European Committee on Antimicrobial Susceptibility Testing (EUCAST). The method involved the preparation of microbial suspensions with a standardized density of 0.5 on the McFarland scale (equivalent to 1.5 × 10^8 colony-forming units/mL for bacteria and […] for fungi). A solution of the test substances was then prepared (initial concentration 1000 µg/mL, diluted in sterile Mueller-Hinton broth for bacteria or Mueller-Hinton with 2% glucose for fungi). The test was carried out in 96-well polystyrene flat-bottom plates (Medlab, Poland) with 100 µL of appropriate sterile microbiological medium in each well. […] After incubation, the spectrophotometric absorbance at 570 nm in each well of the plate was read. […] The MBC value was determined by adding 5 µL of the contents of each well of the plate to solid sterile MHA or MHA + 2%glc medium for bacteria and fungi, respectively. […] In addition, the quotient MBC(MFC)/MIC could be determined to assess the nature of the activity of the test substance. […]
# [14] = Staphylococcus aureus, ATCC25923
# [15] = Staphylococcus epidermidis, ATCC12228
structure (smiles),measurement,setting,value
"N.N.[Cl][Pt][Cl] [Cisplatin, cisplatin]",IC50,A-549 cells,3.2 ± 1.24 µM
same,IC50,SW620 cells,6.7 ± 1.1 µM
same,IC50,MDA-MB-231 cells,7.8 ± 0.98 µM
same,IC50,HaCaT cells,6.3 ± 0.7 µM
Cn1cc([N+](=O)[O-])nc1C(=O)NNC(=S)Nc1cccc(C(F)(F)F)c1 [Compound 13],MIC,Candida auris CDC B11903; Ca B11903,>1000 µg/mL
same,MIC,[1]; Cl 3449,>1000 µg/mL
same,MIC,[2]; Ck 14243,>1000 µg/mL
same,MBC,[3]; Sa 25923,>1000 µg/mL
same,MIC,[3]; Sa 25923,500 µg/mL
same,MBC,[4]; Se 12228,>1000 µg/mL
same,MIC,[4]; Se 12228,1000 µg/mL
same,MBC,[5]; Bc 10876,>1000 µg/mL
same,MIC,[5]; Bc 10876,1000 µg/mL
same,MIC,[6]; Ct 1369,>1000 µg/mL
same,MIC,[7]; Sa 6538,>1000 µg/mL
same,MFC,[8]; Cp 22019,1000 µg/mL
same,MIC,[8]; Cp 22019,500 µg/mL
same,MFC/MIC Ratio,"[8]; Cp 22019, <4 fungicidal, ≥4 fungistatic",2
same,MIC,[9]; Sa 43300 MRSA,>1000 µg/mL
same,"MBC (range, C. parapsilosis ATCC 22019 and C. tropicalis ATCC 1369)",Candida spp.,500 to 1000 µg/mL
same,"MIC (range, C. parapsilosis ATCC 22019 and C. tropicalis ATCC 1369)",Candida spp.,62.5 to 1000 µg/mL
same,MBC,[10]; Ml 10240,>1000 µg/mL
same,MIC,[10]; Ml 10240,500 µg/mL
same,MIC,[11]; Cg 90030,>1000 µg/mL
same,MIC,[12]; Cg 15126,>1000 µg/mL
same,MBC,[13]; Bs 6633,500 µg/mL
same,MIC,[13]; Bs 6633,500 µg/mL
same,MBC/MIC Ratio,[13]; Bs 6633,1
"Cn1cc([N+](=O)[O-])nc1C(=O)NNC(=S)Nc1ccc([N+](=O)[O-])cc1 [Compound 18, 1-[(1-methyl-4-nitroimidazol-2-yl)carbonyl]-4-(4-nitrophenyl)-thiosemicarbazide]",MIC,"Candida auris CDC B11903; Candidozyma auris, CDCB11903",> 1000 µg/mL
same,MIC (range or value for several Gram-positive strains),Gram-positive bacteria,500 to 1000 µg/mL
same,MIC,"[1]; Clavispora lusitaniae, ATCC3449",> 1000 µg/mL
same,MIC,"[2]; Pichia kudriavzevii, ATCC14243",> 1000 µg/mL
same,MBC,[3]; [14],> 1000 µg/mL
same,MIC,[3]; [14],500 µg/mL
same,MBC,[4]; [15],> 1000 µg/mL
same,MIC,[4]; [15],1000 µg/mL
same,MBC,"[5]; Bacillus cereus, ATCC10876",1000 µg/mL
same,MIC,"[5]; Bacillus cereus, ATCC10876",1000 µg/mL
same,MBC/MIC Ratio,"[5]; Bc 10876, <4 bactericidal, ≥4 bacteriostatic",1
same,MFC,"[6]; Candida tropicalis, ATCC1369",> 1000 µg/mL
same,MIC,"[6]; Candida tropicalis, ATCC1369",500 µg/mL
same,MIC,"[7]; Staphylococcus aureus, ATCC6538",> 1000 µg/mL
same,MIC,"[8]; Lodderomyces parapsilosis, ATCC22019",> 1000 µg/mL
same,MIC,[9]; Staphylococcus aureus,> 1000 µg/mL
same,MBC,"[10]; Micrococcus luteus, ATCC10240",1000 µg/mL
same,MIC,"[10]; Micrococcus luteus, ATCC10240",500 µg/mL
same,MBC/MIC Ratio,"[10]; Ml 10240, <4 bactericidal, ≥4 bacteriostatic",2
same,MIC,"[11]; Nakaseomyces glabratus, ATCC90030",> 1000 µg/mL
same,MIC,"[12]; Nakaseomyces glabratus, ATCC15126",> 1000 µg/mL
same,MBC,"[13]; Bacillus subtilis, ATCC6633",1000 µg/mL
same,MIC,"[13]; Bacillus subtilis, ATCC6633",1000 µg/mL
same,MBC/MIC Ratio,[13]; Bs 6633,1
